Test results published in US11046680B1, “Heteroaryl-substituted triazoles as APJ receptor agonists” (priority 2016, dated 2021).
pEC50: −log10 of the molar value.

target: human APJ receptor (Homo sapiens (Human), UniProt P35414); test: biochemical; type: biochemical; conditions: [35S]GTPγS binding, CHO membranes expressing human APJ receptor; read-out: Activity hAPJ SPA EC50 IP
Description: The human APJ receptor was cloned by polymerase chain reaction and the gene encoding the receptor was subcloned in pFLAG-CMV™-3 expression vector (Sigma, Saint Louis, Mo. USA) in-house at Amgen. A GTPγS binding assay was performed on membranes prepared from CHO cells stably expressing human APJ receptor. The optimum experimental conditions for the concentrations of GDP, MgCl2, and NaCl in the assay buffer were initially determined. […] Incubation was at RT for 90 min and the microplate was read using a ViewLux™ ultra HTS Microplate Imager (PerkinElmer, Inc.).

human APJ receptor, sequence (P35414 whole entry): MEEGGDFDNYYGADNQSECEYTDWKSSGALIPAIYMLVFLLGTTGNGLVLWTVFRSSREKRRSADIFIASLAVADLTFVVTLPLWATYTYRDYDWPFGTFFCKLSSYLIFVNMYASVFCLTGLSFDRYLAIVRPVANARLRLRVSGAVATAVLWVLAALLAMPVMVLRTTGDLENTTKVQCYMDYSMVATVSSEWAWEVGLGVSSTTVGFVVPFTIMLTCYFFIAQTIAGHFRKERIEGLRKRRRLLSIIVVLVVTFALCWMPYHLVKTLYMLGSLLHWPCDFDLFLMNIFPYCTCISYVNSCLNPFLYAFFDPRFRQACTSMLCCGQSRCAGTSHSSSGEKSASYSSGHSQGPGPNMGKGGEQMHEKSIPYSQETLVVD

Compound | pEC50
COCC1(n2c(NS(=O)(=O)[C@@H](C)[C@H](OC)c3ncc(Cl)cn3)nnc2-c2n[nH]c3ccc(C)cc23)CC1 [Example 493.0, (1R,2S)-1-(5-chloropyrimidin-2-yl)-1-methoxy-N-(4-(1-(methoxymethyl)cyclopropyl)-5-(5-methyl-1H-indazol-3-yl)-4H-1,2,4-triazol-3-yl)propane-2-sulfonamide] | 7.37
COc1ccc(N2CCCC2=O)cc1-n1c(NS(=O)(=O)CCc2ccc(Cl)cc2)nnc1-c1cccs1 [Example 125.0, 2-(4-Chlorophenyl)-N-(4-(2-methoxy-5-(2-oxo-1-pyrrolidinyl)phenyl)-5-(2-thiophenyl)-4H-1,2,4-triazol-3-yl)ethanesulfonamide] | 7.62
COc1ncnc(OC)c1-n1c(NS(=O)(=O)[C@@H](C)[C@@H](OC(C)C)c2ncc(Cl)cn2)nnc1-c1ccn(C)n1 [Example 456.0, (1S,2S)-1-(5-chloro-2-pyrimidinyl)-N-(4-(4,6-dimethoxy-5-pyrimidinyl)-5-(1-methyl-1H-pyrazol-3-yl)-4H-1,2,4-triazol-3-yl)-1-(1-methylethoxy)-2-propanesulfonamide] | 9.22
COc1nc[nH]c(=O)c1-n1c(NS(=O)(=O)[C@@H](C)Cc2ncc(F)cn2)nnc1-c1ccn(C)n1 (racemic) [Example 7.0, (2R)-1-(5-fluoro-2-pyrimidinyl)-N-(4-(4-methoxy-6-oxo-1,6-dihydro-5-pyrimidinyl)-5-(1-methyl-1H-pyrazol-3-yl)-4H-1,2,4-triazol-3-yl)-2-propanesulfonamide and (2S)-1-(5-fluoro-2-pyrimidinyl)-N-(4-(4-methoxy-6-oxo-1,6-dihydro-5-pyrimidinyl)-5-(1-methyl-1H-pyrazol-3-yl)-4H-1,2,4-triazol-3-yl)-2-propanesulfonamide] | 7.29
Cn1ccc(-c2nnc(NS(=O)(=O)[C@@H]3C[C@H](O)CN(c4ncc(F)cn4)C3)n2-c2c(F)cccc2F)n1 (single isomer, unassigned) [Example 299.0, (3R,5S)-N-(4-(2,6-difluorophenyl)-5-(1-methyl-1H-pyrazol-3-yl)-4H-1,2,4-triazol-3-yl)-1-(5-fluoro-2-pyrimidinyl)-5-hydroxy-3-piperidinesulfonamide or (3S,5R)-N-(4-(2,6-difluorophenyl)-5-(1-methyl-1H-pyrazol-3-yl)-4H-1,2,4-triazol-3-yl)-1-(5-fluoro-2-pyrimidinyl)-5-hydroxy-3-piperidinesulfonamide] | 6.28
CC(C)O[C@@H](c1ncc(Cl)cn1)[C@H](C)S(=O)(=O)Nc1nnc(-c2cnn(C)c2)n1C1CC1 [Example 536.0, (1S,2S)-1-(5-chloro-2-pyrimidinyl)-N-(4-cyclopropyl-5-(1-methyl-1H-pyrazol-4-yl)-4H-1,2,4-triazol-3-yl)-1-(2-propanyloxy)-2-propanesulfonamide] | 7.15
COc1cccc(OC)c1-n1c(NS(=O)(=O)[C@@H](C)[C@H](OC)c2ncc(C)cn2)nnc1-c1ncnc2cc[nH]c12 [Example 435.0, (1R,2S)-N-(4-(2,6-dimethoxyphenyl)-5-(5H-pyrrolo[3,2-d]pyrimidin-4-yl)-4H-1,2,4-triazol-3-yl)-1-methoxy-1-(5-methylpyrimidin-2-yl)propane-2-sulfonamide] | 6.74
COc1cccc(OC)c1-n1c(NS(=O)(=O)[C@@H](C)[C@H](C)c2ncc(Cl)cn2)nnc1-c1ccn(C(F)F)n1 [Example 222.0, (2S,3R)-3-(5-chloro-2-pyrimidinyl)-N-(5-(1-(difluoromethyl)-1H-pyrazol-3-yl)-4-(2,6-dimethoxyphenyl)-4H-1,2,4-triazol-3-yl)-2-butanesulfonamide] | 9.96
COc1ccc([C@@H](C)[C@H](C)S(=O)(=O)Nc2nnc(-c3ccn(C)n3)n2-c2c(OC)ncnc2OC)nc1 [Example 458.0, (2S,3R)-N-(4-(4,6-dimethoxy-5-pyrimidinyl)-5-(1-methyl-1H-pyrazol-3-yl)-4H-1,2,4-triazol-3-yl)-3-(5-methoxy-2-pyridinyl)-2-butanesulfonamide] | 8.55
COCC(COC)n1c(NS(=O)(=O)[C@@H](C)[C@H](C)c2ncc(Cl)cn2)nnc1-c1nn(C)c2ccc(C)cc12 [Example 448.0, (2S,3R)-3-(5-chloropyrimidin-2-yl)-N-(4-(1,3-dimethoxypropan-2-yl)-5-(1,5-dimethyl-1H-indazol-3-yl)-4H-1,2,4-triazol-3-yl)butane-2-sulfonamide] | 8.00
COc1cccc(OC)c1-n1c(NS(=O)(=O)[C@@H](C)[C@H](C)c2ncc(C)cn2)nnc1-c1ccn(C(F)F)n1 [Example 198.0, (2S,3R)-N-(5-(1-(difluoromethyl)-1H-pyrazol-3-yl)-4-(2,6-dimethoxyphenyl)-4H-1,2,4-triazol-3-yl)-3-(5-methyl-2-pyrimidinyl)-2-butanesulfonamide] | 9.70
COc1cccc(OC)c1-n1c(NS(=O)(=O)CCc2ccc(Cl)cc2)nnc1-c1cocn1 [Example 139.0, 2-(4-chlorophenyl)-N-(4-(2,6-dimethoxyphenyl)-5-(oxazol-4-yl)-4H-1,2,4-triazol-3-yl)ethanesulfonamide] | 6.93
COc1cccc(OC)c1-n1c(NS(=O)(=O)[C@@H](C)[C@H](C)c2ncc(Cl)cn2)nnc1-c1noc2c1CCCC2 [Example 441.0, (2S,3R)-3-(5-chloropyrimidin-2-yl)-N-(4-(2,6-dimethoxyphenyl)-5-(4,5,6,7-tetrahydrobenzo[d]isoxazol-3-yl)-4H-1,2,4-triazol-3-yl)butane-2-sulfonamide] | 9.48
(2S)-N-(4-(2,6-dimethoxyphenyl)-5-(6-methoxy-2-pyrazinyl)-4H-1,2,4-triazol-3-yl)-1-(5-fluoro-2-pyrimidinyl)-2-propanesulfonamide and (2R)-N-(4-(2,6-dimethoxyphenyl)-5-(6-methoxy-2-pyrazinyl)-4H-1,2,4-triazol-3-yl)-1-(5-fluoro-2-pyrimidinyl)-2-propanesulfonamide [Example 177.0] | 8.35
COc1cccc(OC)c1-n1c(NS(=O)(=O)C[C@H](OC)c2ccc(F)cc2S(C)(=O)=O)nnc1-c1ccn(C)n1 (single isomer, unassigned) [Example 372.0, (R)-N-(4-(2,6-Dimethoxyphenyl)-5-(1-methyl-1H-pyrazol-3-yl)-4H-1,2,4-triazol-3-yl)-2-(4-fluoro-2-(methylsulfonyl)phenyl)-2-methoxyethanesulfonamide or (S)-N-(4-(2,6-dimethoxyphenyl)-5-(1-methyl-1H-pyrazol-3-yl)-4H-1,2,4-triazol-3-yl)-2-(4-fluoro-2-(methylsulfonyl)phenyl)-2-methoxyethanesulfonamide] | 8.85
COc1cccc(OC)c1-n1c(NS(=O)(=O)[C@@H](C)[C@H](OC)c2ncc(C)cn2)nnc1-c1cnc2[nH]ccc2n1 [Example 206.0] | 7.02
COCC[C@@H]([C@H](C)c1ncc(F)cn1)S(=O)(=O)Nc1nnc(-c2nc(C)cs2)n1-c1c(OC)cccc1OC (single isomer, unassigned) [Example 19.0] | 8.20
COc1cccc(OC)c1-n1c(NS(=O)(=O)[C@@H](C)[C@H](OC)c2ncc(C)cn2)nnc1-c1c(C)nc2ccccn12 [Example 410.0, (1R,25)-N-(4-(2,6-dimethoxyphenyl)-5-(2-methylimidazo[1,2-a]pyridin-3-yl)-4H-1,2,4-triazol-3-yl)-1-methoxy-1-(5-methylpyrimidin-2-yl)propane-2-sulfonamide] | 6.03
COc1cccc(OC)c1-n1c(NS(=O)(=O)CCc2ccc(F)cc2C#N)nnc1-c1nc(C)cs1 [Example 147.0, 2-(2-Cyano-4-fluorophenyl)-N-(4-(2,6-dimethoxyphenyl)-5-(4-methylthiazol-2-yl)-4H-1,2,4-triazol-3-yl)ethanesulfonamide] | 8.89
COc1cccc(OC)c1-n1c(NS(=O)(=O)[C@@H](C)[C@H](OC)c2ncc(C)cn2)nnc1-c1ccn(C(F)F)n1 [Example 203.0, (1R,2S)-N-(5-(1-(difluoromethyl)-1H-pyrazol-3-yl)-4-(2,6-dimethoxyphenyl)-4H-1,2,4-triazol-3-yl)-1-methoxy-1-(5-methyl-2-pyrimidinyl)-2-propanesulfonamide] | 8.68
COc1cccc(OC)c1-n1c(NS(=O)(=O)[C@@H]2C[C@H](O)CN(c3ncc(F)cn3)C2)nnc1-c1nc(C)cs1 (single isomer, unassigned) [Example 254.0, (3R,5S)-N-(4-(2,6-dimethoxyphenyl)-5-(4-methyl-1,3-thiazol-2-yl)-4H-1,2,4-triazol-3-yl)-1-(5-fluoro-2-pyrimidinyl)-5-hydroxy-3-piperidinesulfonamide or (3S,5R)-N-(4-(2,6-dimethoxyphenyl)-5-(4-methyl-1,3-thiazol-2-yl)-4H-1,2,4-triazol-3-yl)-1-(5-fluoro-2-pyrimidinyl)-5-hydroxy-3-piperidinesulfonamide] | 8.92
COc1cccc(OC)c1-n1c(NS(=O)(=O)CCc2ccc(Cl)cc2)nnc1-c1cscn1 [Example 91.0, 2-(4-chlorophenyl)-N-(4-(2,6-dimethoxyphenyl)-5-(thiazol-4-yl)-4H-1,2,4-triazol-3-yl)ethanesulfonamide] | 7.59
COc1cccc(OC)c1-n1c(NS(=O)(=O)[C@@H](C)[C@H](OC)c2ncc(C)cn2)nnc1-c1noc2ccc(Br)cc12 [Example 414.0] | 6.68
(R)-N-(4-(2,6-dimethoxyphenyl)-5-(pyrimidin-4-yl)-4H-1,2,4-triazol-3-yl)-1-(5-fluoropyrimidin-2-yl)propane-2-sulfonamide and (R)-N-(4-(2,6-dimethoxyphenyl)-5-(pyrimidin-4-yl)-4H-1,2,4-triazol-3-yl)-1-(5-fluoropyrimidin-2-yl)propane-2-sulfonamide [Example 31.0] | 6.72
